The text below walks through data of patent publication US9422277B2, “Tricyclic substituted thiadiazine dioxide compounds as BACE inhibitors, compositions and their use” (Merck Sharp & Dohme Corp., priority 2012, dated 2016).

In data set [1] the target is purified human autoBACE-2 (Homo sapiens (Human), UniProt Q9Y5Z0). Nature of the data set: BACE-2 Assay (BACE-HTRF assay). The data set is classed as biochemical. To be noted: Ki calculated from IC50 using the Cheng-Prusoff equation; read-out: BACE2 Ki. The protocol:
Inhibitor IC50s at purified human autoBACE-2 are determined in a time-resolved endpoint proteolysis assay that measures hydrolysis of the QSY7-[…]-Eu-amide FRET peptide substrate (BACE-HTRF assay). BACE-mediated hydrolysis of this peptide results in an increase in relative fluorescence (RFU) at 620 nm after excitation with 320 nm light Inhibitor compounds, prepared at 3× the desired final concentration in 1×BACE assay buffer (20 mM sodium acetate pH 5.0, 10% glycerol, 0.1% Brij-35) supplemented with 7.5% DMSO are pre-incubated with an equal volume of autoBACE-2 enzyme diluted in 1×BACE assay buffer (final enzyme concentration 1 nM) in black 384-well NUNC plates for 30 minutes at 30° C. […] DMSO is present at 5% final concentration in the assay. Following laser excitation of sample wells at 320 nm, the fluorescence signal at 620 nm is collected for 400 ms following a 50 μs delay on a RUBYstar HTRF plate reader (BMG Labtechnologies). Raw RFU data is normalized to maximum (1.0 nM BACE/DMSO) and minimum (no enzyme/DMSO) RFU values. IC50s are determined by nonlinear regression analysis (sigmoidal dose response, variable slope) of percent inhibition data with minimum and maximum values set to 0 and 100 percent respectively. Similar IC50s are obtained when using raw RFU data. The Ki values are calculated from the IC50 using the Cheng-Prusoff equation.

Another data set concerns the target human P-glycoprotein (Homo sapiens (Human), UniProt P08183). Nature of the data set: Efflux by human P-glycoprotein (Pgp Mdr1 efflux ratio). The data set is classed as in vitro ADME.
For data set [2], the target named is soluble human BACE1 catalytic domain (Homo sapiens (Human), UniProt P56817). Kind of data set: BACE1 HTRF FRET Assay. Particulars: Ki calculated from IC50 using the Cheng-Prusoff equation. The data set is classed as biochemical. From the text:
A homogeneous time-resolved FRET assay can be used to determine IC50 values for inhibitors of the soluble human BACE1 catalytic domain. This assay monitors the increase of 620 nm fluorescence that resulted from BACE1 cleavage of an APPswedish APP^swe mutant peptide FRET substrate (QSY7-[…]-Europium-amide). This substrate contains an N-terminal QSY7 moiety that serves as a quencher of the C-terminal Europium fluorophore (620 nm Em). In the absence of enzyme activity, 620 nm fluorescence is low in the assay and increased linearly over 3 hours in the presence of uninhibited BACE1 enzyme Inhibition of BACE1 cleavage of the QSY7-APP^swe-Eu substrate by inhibitors is manifested as a suppression of 620 nm fluorescence.
Reactions are initiated by addition of 10 μl of 600 nM QSY7-APP^swe-Eu substrate (200 nM final) to give a final reaction volume of 30 μl in a 384 well Nunc HTRF plate. The reactions are incubated at 30° C. for 1.5 hours. The 620 nm fluorescence is then read on a Rubystar HTRF plate reader (BMG Labtechnologies) using a 50 millisecond delay followed by a 400 millisecond acquisition time window Inhibitor IC50 values are derived from non-linear regression analysis of concentration response curves.

The structures appear in SMILES notation.

Chain of human P-glycoprotein (P08183 whole entry, the tested form may be a part): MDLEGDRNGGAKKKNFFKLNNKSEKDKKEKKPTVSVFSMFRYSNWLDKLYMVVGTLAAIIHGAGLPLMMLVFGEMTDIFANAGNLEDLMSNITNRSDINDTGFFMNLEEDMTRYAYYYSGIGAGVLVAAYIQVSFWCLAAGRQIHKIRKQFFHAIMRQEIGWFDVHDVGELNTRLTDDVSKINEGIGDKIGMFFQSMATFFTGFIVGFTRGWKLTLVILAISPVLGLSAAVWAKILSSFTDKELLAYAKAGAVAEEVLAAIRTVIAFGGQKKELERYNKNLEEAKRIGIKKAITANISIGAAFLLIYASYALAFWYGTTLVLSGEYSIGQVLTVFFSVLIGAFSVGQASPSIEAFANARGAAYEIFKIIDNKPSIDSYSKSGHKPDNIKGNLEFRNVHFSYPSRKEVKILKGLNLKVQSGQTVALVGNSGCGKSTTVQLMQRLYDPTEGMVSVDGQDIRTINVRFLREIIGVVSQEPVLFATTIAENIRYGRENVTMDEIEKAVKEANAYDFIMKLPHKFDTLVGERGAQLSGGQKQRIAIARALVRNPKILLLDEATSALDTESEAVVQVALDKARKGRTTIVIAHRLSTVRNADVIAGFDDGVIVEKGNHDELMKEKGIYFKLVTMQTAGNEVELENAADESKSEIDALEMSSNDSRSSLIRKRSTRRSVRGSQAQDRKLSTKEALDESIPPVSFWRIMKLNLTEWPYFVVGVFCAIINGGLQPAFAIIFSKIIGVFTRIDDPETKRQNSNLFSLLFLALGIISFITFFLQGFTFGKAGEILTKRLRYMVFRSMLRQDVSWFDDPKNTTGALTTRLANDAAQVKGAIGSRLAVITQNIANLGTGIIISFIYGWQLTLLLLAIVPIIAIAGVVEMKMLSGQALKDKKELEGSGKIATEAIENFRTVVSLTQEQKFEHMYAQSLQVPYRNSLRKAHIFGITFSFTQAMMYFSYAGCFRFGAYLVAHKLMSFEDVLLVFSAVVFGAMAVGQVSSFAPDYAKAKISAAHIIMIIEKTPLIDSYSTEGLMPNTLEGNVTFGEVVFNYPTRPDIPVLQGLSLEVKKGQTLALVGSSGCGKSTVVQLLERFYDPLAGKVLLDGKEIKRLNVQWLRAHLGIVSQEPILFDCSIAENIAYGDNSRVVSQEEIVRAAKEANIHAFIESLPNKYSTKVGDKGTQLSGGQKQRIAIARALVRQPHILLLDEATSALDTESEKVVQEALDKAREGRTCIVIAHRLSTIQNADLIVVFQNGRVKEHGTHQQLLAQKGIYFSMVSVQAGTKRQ
Chain of purified human autoBACE-2 (Q9Y5Z0 63-473 limits assumed): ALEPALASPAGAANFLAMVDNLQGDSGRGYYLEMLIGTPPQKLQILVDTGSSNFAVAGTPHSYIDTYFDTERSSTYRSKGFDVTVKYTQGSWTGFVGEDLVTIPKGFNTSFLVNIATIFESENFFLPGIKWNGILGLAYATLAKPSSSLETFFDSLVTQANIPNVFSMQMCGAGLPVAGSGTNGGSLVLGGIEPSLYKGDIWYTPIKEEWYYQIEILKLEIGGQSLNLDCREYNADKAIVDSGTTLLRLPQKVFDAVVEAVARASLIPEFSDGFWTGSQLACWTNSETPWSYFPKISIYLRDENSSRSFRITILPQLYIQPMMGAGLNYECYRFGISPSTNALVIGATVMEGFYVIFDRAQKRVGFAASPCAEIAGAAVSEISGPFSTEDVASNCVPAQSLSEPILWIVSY
Chain of soluble human BACE1 catalytic domain (P56817 75-416): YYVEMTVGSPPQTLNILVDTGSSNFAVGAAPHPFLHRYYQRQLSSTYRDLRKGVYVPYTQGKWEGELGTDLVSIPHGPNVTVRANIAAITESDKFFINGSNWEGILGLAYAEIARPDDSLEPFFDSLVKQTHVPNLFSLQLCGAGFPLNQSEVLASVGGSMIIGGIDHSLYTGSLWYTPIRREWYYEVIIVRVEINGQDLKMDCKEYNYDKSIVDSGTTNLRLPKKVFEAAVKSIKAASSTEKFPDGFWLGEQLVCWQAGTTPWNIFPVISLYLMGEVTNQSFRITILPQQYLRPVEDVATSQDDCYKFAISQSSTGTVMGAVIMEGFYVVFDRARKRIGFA

Usually Ki stands for a measure of affinity in units of concentration, obtained from inhibition or displacement. For the compound `COc1ccc(-c2nnc(-c3cc(Cl)c([C@]4(C)CS(=O)(=O)N(C)C(=N)N4)s3)o2)cc1` [Example 17], the values for the Ki in data set [1] and in data set [2] were 0.0346 µM and 0.0386 µM, respectively. Moreover, the “Pgp Mdr1 ER” value on human P-glycoprotein came to 1.0.

Take `CN1C(=N)N[C@](C)(c2sc(-c3nnc(-c4cccc(C#N)c4)o3)cc2Cl)CS1(=O)=O` [Example 31]: the Ki in data set [1] is 1.24 µM; in data set [2], 1.21 µM.

Take `CN1C(=N)N[C@](C)(c2sc(-c3nnc(-c4ccc(-n5cnnn5)cc4)o3)cc2Cl)CS1(=O)=O` [Example 70]: the Ki was 1.35 µM in data set [1] and 0.179 µM in data set [2].

Regarding `CN1C(=N)N[C@](C)(c2sc(-c3nnc(-c4cccc5ccnn45)o3)cc2Cl)CS1(=O)=O` [Example 34], the Ki in data set [1] is 0.217 µM; in data set [2], 0.561 µM.

Take `CN1C(=N)N[C@](C)(c2sc(-c3nnc(C4Cc5ccccc5C4)o3)cc2Cl)CS1(=O)=O` [Example 38]: the Ki in data set [1] was 0.124 µM; in data set [2], 0.255 µM.

As to `CN1C(=N)N[C@](C)(c2sc(-c3nnc(-c4ccc(F)cc4)o3)cc2Cl)CS1(=O)=O` [Example 22], the Ki in data set [1] was 0.013 µM; in data set [2], 0.0655 µM. Moreover, the “Pgp Mdr1 ER” value at human P-glycoprotein was found to be 1.4.

`CN1C(=N)N[C@](C)(c2cc(-c3nnc(-c4cncs4)o3)ccc2F)CS1(=O)=O` [Example 50]: the Ki in data set [1] is 4.22 µM; in data set [2], 9.92 µM.

Turning to `CN1C(=N)N[C@](C)(c2sc(-c3cn(-c4ccccc4)nn3)cc2Cl)CS1(=O)=O` [Example 5], the results for the Ki in data set [1] and in data set [2] were 0.281 µM and 1.99 µM, respectively.

As to `CN1C(=N)N[C@](C)(c2sc(-c3nnc(-c4ccc(OCc5ccccc5)cc4)o3)cc2Cl)CS1(=O)=O` [Example 63], the Ki in data set [1] was 0.527 µM; in data set [2], 0.227 µM.

Take `CN1C(=N)N[C@](C)(c2sc(-c3ncc(-c4ccccn4)[nH]3)cc2Cl)CS1(=O)=O` [Example 3]: the Ki is 0.0879 µM in data set [1] and 0.47 µM in data set [2].

Take `Cc1nnc(-c2ccc(-c3cc(Cl)c([C@]4(C)CS(=O)(=O)N(C)C(=N)N4)s3)[nH]2)o1` [Example 9]: the Ki in data set [1] is 0.00824 µM; in data set [2], 0.0081 µM.

Take `CN1C(=N)N[C@](C)(c2cc(-c3ccc(-c4nnco4)[nH]3)ccc2F)CS1(=O)=O` [Example 11]: the Ki was 0.172 µM in data set [1] and 0.045 µM in data set [2].

`CN1C(=N)N[C@](C)(c2sc3c(-c4cnc(-c5ccc(F)cc5)o4)cccc3c2F)CS1(=O)=O` [Example 83]: the Ki was 3.31 µM in data set [1] and 3.18 µM in data set [2].

As to `CN1C(=N)N[C@](C)(c2sc(-c3nnc(-c4ccccc4)o3)cc2Cl)CS1(=O)=O` [Example 20], the Ki in data set [1] was 0.00776 µM; in data set [2], 0.106 µM. At human P-glycoprotein, the “Pgp Mdr1 ER” value is 1.3.

`CN1C(=N)N[C@](C)(c2sc3c(-c4coc(-c5ccc(F)cc5)n4)cccc3c2F)CS1(=O)=O` [Example 82]: the Ki in data set [1] was 2.94 µM; in data set [2], 4.89 µM.

Regarding `CN1C(=N)N[C@](C)(c2sc(-c3nnc(-c4cnn5ccccc45)o3)cc2Cl)CS1(=O)=O` [Example 35], the values for the Ki in data set [1] and in data set [2] were 0.45 µM and 2.37 µM, respectively.

Take `CN1C(=N)N[C@](C)(c2cc(-c3cc(-c4ccccc4)on3)ccc2F)CS1(=O)=O` [Example 13]: the inhibition constant Ki in data set [1] is 0.207 µM; in data set [2], 0.91 µM.

With `CN1C(=N)N[C@](C)(c2sc(-c3nnc(-c4ccc(Cl)cc4)o3)cc2Cl)CS1(=O)=O` [Example 16], the Ki was 0.0138 µM in data set [1] and 0.0288 µM in data set [2]. Also, the “Pgp Mdr1 ER” value on human P-glycoprotein came out at 1.1.

Consider `CN1C(=N)N[C@](C)(c2sc(-c3nnc(-c4cncs4)o3)cc2Cl)CS1(=O)=O` [Example 33], for which the Ki in data set [1] is 0.347 µM; in data set [2] it was 0.863 µM.

In the case of `CN1C(=N)N[C@](C)(c2cc(-c3nnc(-c4cnco4)o3)ccc2F)CS1(=O)=O` [Example 26], the Ki was 0.801 µM in data set [1] and 1.25 µM in data set [2].

Regarding `CN1C(=N)N[C@](C)(c2sc(-c3ncc(-c4ccccc4)[nH]3)cc2Cl)CS1(=O)=O` [Example 2], the values for the Ki in data set [1] and in data set [2] were 0.0148 µM and 0.112 µM, respectively.

`CN1C(=N)N[C@](C)(c2sc(-c3nnc(-c4ccncc4)o3)cc2Cl)CS1(=O)=O` [Example 28]: the Ki is 0.332 µM in data set [1] and 0.558 µM in data set [2].

As for `CN1C(=N)N[C@](C)(c2sc(-c3nnc(-c4ccc(C(F)(F)F)cc4)o3)cc2Cl)CS1(=O)=O` [Example 18], the figures for the Ki in data set [1] and in data set [2] were 0.155 µM and 0.0589 µM, respectively. Moreover, at human P-glycoprotein, the “Pgp Mdr1 ER” value amounted to 0.7.

Take `CN1C(=N)N[C@](C)(c2cc(-c3nnc(-c4ccon4)o3)ccc2F)CS1(=O)=O` [Example 55]: the figures for the Ki in data set [1] and in data set [2] were 0.737 µM and 4.94 µM, respectively.

For the compound `CN1C(=N)N[C@](C)(c2sc(-c3cc(-c4ccccc4)no3)cc2Cl)CS1(=O)=O` [Example 14], the Ki in data set [1] is 0.144 µM; in data set [2] it was 0.943 µM.

For the compound `CN1C(=N)N[C@](C)(c2sc(-c3nnc(-c4ccc(C5CCC(F)(F)C5)cc4)o3)cc2Cl)CS1(=O)=O` (some centres unmarked) [Example 67], the Ki was 1.87 µM in data set [1] and 1.11 µM in data set [2].

Take `CN1C(=N)N[C@](C)(c2sc(-c3nnc(-c4ccc(OC(F)(F)F)cc4)o3)cc2Cl)CS1(=O)=O` [Example 78]: the Ki was 0.143 µM in data set [1] and 0.056 µM in data set [2].

As to `CN1C(=N)N[C@](C)(c2sc3c(-c4cnn(-c5ccccc5)c4)cccc3c2F)CS1(=O)=O` [Example 81], the Ki was 0.337 µM in data set [1] and 1.46 µM in data set [2].

Take `CN1C(=N)N[C@](C)(c2cc(-c3nnc(C4Cc5ccccc5C4)o3)ccc2F)CS1(=O)=O` [Example 52]: the Ki in data set [1] is 2.68 µM; in data set [2], 7.69 µM.

On to `CN1C(=N)N[C@](C)(c2sc(-c3nnc(-c4ccc(-c5noc(C(F)(F)F)n5)cc4)o3)cc2Cl)CS1(=O)=O` [Example 77], for which the Ki in data set [1] was 1.28 µM; in data set [2], 0.258 µM.

For the compound `CN1C(=N)N[C@](C)(c2sc(-c3nnc(-c4ccc(C#N)cc4)o3)cc2Cl)CS1(=O)=O` [Example 23], the Ki in data set [1] was 0.0449 µM; in data set [2], 0.0346 µM.

Take `CCCCCOc1ccc(-c2nnc(-c3cc(Cl)c([C@]4(C)CS(=O)(=O)N(C)C(=N)N4)s3)o2)cc1` [Example 64]: the Ki was 0.356 µM in data set [1] and 0.16 µM in data set [2].

On to `CN1C(=N)N[C@](C)(c2cc(-c3cc(-c4ccccc4)on3)ccc2F)CS1(=O)=O` [Example 15], for which the results for the Ki in data set [1] and in data set [2] were 0.0526 µM and 0.326 µM, respectively.

With `CN1C(=N)N[C@](C)(c2sc(-c3nnc(-c4ccc(-c5ccon5)cc4)o3)cc2Cl)CS1(=O)=O` [Example 76], the values for the Ki in data set [1] and in data set [2] were 0.243 µM and 0.108 µM, respectively.

With `CN1C(=N)N[C@](C)(c2cc(-c3nnc(-c4ncco4)o3)ccc2F)CS1(=O)=O` [Example 53], the inhibition constant Ki in data set [1] was 0.186 µM; in data set [2], 3.42 µM.

As to `CN1C(=N)N[C@](C)(c2sc(-c3nnc(-c4cnco4)o3)cc2Cl)CS1(=O)=O` [Example 40], the figures for the Ki in data set [1] and in data set [2] were 0.142 µM and 0.25 µM, respectively.

Turning to `CN1C(=N)N[C@](C)(c2sc(-c3nnc(-c4ccc(Cl)cc4)o3)cc2F)CS1(=O)=O` [Example 19], the Ki in data set [1] is 0.0136 µM; in data set [2], 0.0319 µM. The “Pgp Mdr1 ER” value on human P-glycoprotein is recorded as 1.0.

As for `CC(C)Oc1ccc(-c2nnc(-c3cc(Cl)c([C@]4(C)CS(=O)(=O)N(C)C(=N)N4)s3)o2)cc1` [Example 60], the Ki in data set [1] is 0.533 µM; in data set [2], 0.205 µM.

Consider `CN1C(=N)N[C@](C)(c2sc(-c3nnc(-c4ccon4)o3)cc2Cl)CS1(=O)=O` [Example 44], for which the Ki in data set [1] is 0.157 µM; in data set [2], 1.34 µM.

Take `CN1C(=N)N[C@](C)(c2sc(-c3nnc(-c4ccn(C)n4)o3)cc2Cl)CS1(=O)=O` [Example 46]: the values for the Ki in data set [1] and in data set [2] were 0.13 µM and 1.14 µM, respectively.
